{
  "source": "patent US20140255432A1",
  "about": "“SILVESTROL, SILVESTROL ANALOGS AND USES THEREOF” (priority 2011, published 2014)",
  "key": {"autologous LCL targets": {"test_system": "autologous LCL targets", "experiment": "Flow cytometry-based cytotoxicity assay (CFSE/7-AAD), effectors against autologous LCL", "type": "cell-based, human", "protocol": "Non-radioactive flow cytometry-based cytotoxicity assays have been described previously (Godoy-Ramirez 2005; Helguera 2011). Co-cultures of PBMC and irradiated LCL were grown in the presence or absence of silvestrol for 14 d and collected. Fresh autologous LCL cells were stained with 200 nM carboxyfluorescein diacetate succinimidyl ester (CFSE) (CellTrace™, Invitrogen) for 15 min at 25° C. prior to being mixed with effectors from the irradiated co-cultures at an effector:target (E:T) ratio of 20:1 for 4 hr at 37° C. After the incubation, cells were stained with 7-aminoactinomycin D (7AAD) (BD Biosciences, San Diego, Calif.) and washed. Cytotoxicity was measured by gating on the CFSE-positive events and measuring the 7AAD-positive cells. (See FIGS. 31 and 32). For antibody-dependent cell-mediated cytotoxicity (ADCC) assays the same technique was used; however, the co-cultured effectors were natural killer (NK) cell-enriched and were incubated in the presence or absence of 5 μg/mL rituximab or herceptin (negative control) (Genentech, Inc., South San Francisco, Calif.) for 4 hr at 37° C.\nImmune cell function was then analyzed as part of the indirect anti-tumor activity of silvestrol. Cytotoxicity assays were performed. To investigate the effect of silvestrol on adaptive immunity, LCL cells were stained with the cell-tracking dye CFSE, then incubated at an effector to target ratio of 20:1 with autologous PBMC that had been cultured in the presence of irradiated LCL, with or without silvestrol, for 14 days. After a 4 hr incubation, cells were stained with the viability dye 7-AAD and washed. Cytotoxic activity against LCL targets was measured by gating on the CFSE positive events and measuring the 7-AAD positive cells (FIGS. 31-32). […] Data are shown relative to the vehicle-only control and are the averages of three independent experiments. Bars show −/+ standard deviation.\nGiven that LCL cells were depleted and effector cell cytotoxicity was maintained in non-irradiated co-cultures, whether silvestrol lowers the apoptotic threshold of the LCL tumor target was examined. PBMC were co-cultured with irradiated LCL in the absence of silvestrol for 14 days. These expanded effectors and fresh LCL each were separately incubated with silvestrol or vehicle control for 18 hr and washed. Cells were then combined, and after 4 hr incubation, cytotoxicity assays were performed as above. […] Data are shown relative to the vehicle-only control and are the averages of three independent experiments. Bars show −/+ standard deviation."}, "[1]": {"test_system": "EBV LMP-1 oncogene transcript", "experiment": "EBV LMP-1 oncogene transcript expression in LCL", "type": "cell-based, Epstein-Barr virus", "settings": "three cell lines; days 1, 3, 5 (FIG. 46)", "from_the_text": "(§1) FIG. 41 presents data regarding NK cytotoxicity of K562 cells. […] FIG. 42 presents data regarding the cytotoxicity of LCLs pretreated with BZLF 1. […] BZLF1 antigen pulsed LCLs promoted enhanced killing in untreated and silvestrol-treated CTLs. FIG. 43 presents data relating to CD4 IFNgamma release with LCL pretreated with BZLF1. […] FIG. 44 presents data relating to CD4 IFNgamma release with LCL pretreated with BZLF 1. […] FIG. 45 presents data relating to interleukin-6 induction by silvestrol. […] FIG. 46 presents data relating to a change in LMP-1 expression following silvestrol treatment. […] Three cell lines were examined on days 1, 3, and 5 following treatment. FIG. 47 presents data relating to a change in EBNA1 expression following silvestrol treatment. Three cell lines were examined on days 1, 3, and 5 following treatment."}, "IFNgamma": {"test_system": "IFNgamma", "experiment": "IFNgamma release / production of immune effector cells", "type": "cell-based, human", "protocol": "CoCx were incubated in the presence of 10 U/ml IL-2 and given a single dose of 0 (vehicle only), 2, 5, or 10 nM silvestrol. At day 14 cells were (A) stimulated non-specifically by addition of 12-O-tetradecanoylphorbol-13-acetate (TPA) and ionomycin (INO) to assay for the ability to release interferon gamma (IFNγ) or (B) by the addition of equal numbers autologous LCL to measure cell mediated response to antigen-induced IFNγ production. IFNγ production was measured by […] flow following four hour stimulation.\nas §1"}},
  "data": [
    {"smiles": "COC(=O)[C@H]1[C@@H](O)[C@@]2(O)c3c(OC)cc(O[C@@H]4O[C@@H]([C@H](O)CO)CO[C@H]4OC)cc3O[C@@]2(c2ccc(OC)cc2)[C@@H]1c1ccccc1", "note": "[silvestrol]", "values": [
      {"measurement": "direct killing of autologous EBV+ LCLs by EBV-specific CTLs", "setting": "autologous LCL targets; 10 nM (FIG. 42)", "value": "not adversely affected"},
      {"measurement": "cytotoxic activity against autologous LCL maintained, compared to effectors expanded without silvestrol", "setting": "autologous LCL targets; effectors expanded 14 days with 10 nM, E:T 20:1, 4 hr", "value": "over 70%"},
      {"measurement": "ability of silvestrol-treated effectors to kill targets vs. untreated effectors", "setting": "autologous LCL targets; effectors incubated 18 hr with silvestrol, p=0.287", "value": "no decrease"},
      {"measurement": "cytotoxic activity of effector populations against autologous EBV+ tumor cells", "setting": "autologous LCL targets; expanded 14 days in 2, 5, 10 nM, 3 donors (FIG. 17)", "value": "did not affect cytotoxic activity"},
      {"measurement": "killing of LCL target cells pretreated with silvestrol vs. untreated targets", "setting": "autologous LCL targets; targets pretreated 18 hr, p<0.0001", "value": "more efficiently killed"},
      {"measurement": "expression of the EBV LMP-1 oncogene transcript", "setting": "[1]", "value": "decreased"},
      {"measurement": "IFNgamma release of CD4+ T cells", "setting": "IFNgamma; 10 nM, LCL pretreated with BZLF1 (FIG. 43)", "value": "not adversely affected"},
      {"measurement": "IFN production of immune effector subsets against irradiated autologous EBV+ LCL (DC9)", "setting": "IFNgamma; low concentrations (2-10 nM) (FIG. 18)", "value": "not abrogated"}
    ]}
  ]
}
